Experimental data published in article PMC6934184, “Selective DNA-PKcs inhibition extends the therapeutic index of localized radiotherapy and chemotherapy” (The Journal of Clinical Investigation, 2019).

Molecular target: T1, JAK2 JH1 JH2 V617F (Homo sapiens, UniProt O60674, V617F)
T1 construct: JAK2 JH1 JH2 V617F; purchased Thermo Fisher Scientific (Life Technologies) SelectScreen
Test: SelectScreen Z'LYTE
Format: biochemical
Method in brief: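 Percent values come from Thermo SelectScreen profiling of NU5455, combining activity and binding assays. CSF1R was run in Z'LYTE format at Km app ATP, and CAMK1 in Adapta format with ATP listed at 10.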

T1 sequence (O60674 532-1132 V617F limits assumed): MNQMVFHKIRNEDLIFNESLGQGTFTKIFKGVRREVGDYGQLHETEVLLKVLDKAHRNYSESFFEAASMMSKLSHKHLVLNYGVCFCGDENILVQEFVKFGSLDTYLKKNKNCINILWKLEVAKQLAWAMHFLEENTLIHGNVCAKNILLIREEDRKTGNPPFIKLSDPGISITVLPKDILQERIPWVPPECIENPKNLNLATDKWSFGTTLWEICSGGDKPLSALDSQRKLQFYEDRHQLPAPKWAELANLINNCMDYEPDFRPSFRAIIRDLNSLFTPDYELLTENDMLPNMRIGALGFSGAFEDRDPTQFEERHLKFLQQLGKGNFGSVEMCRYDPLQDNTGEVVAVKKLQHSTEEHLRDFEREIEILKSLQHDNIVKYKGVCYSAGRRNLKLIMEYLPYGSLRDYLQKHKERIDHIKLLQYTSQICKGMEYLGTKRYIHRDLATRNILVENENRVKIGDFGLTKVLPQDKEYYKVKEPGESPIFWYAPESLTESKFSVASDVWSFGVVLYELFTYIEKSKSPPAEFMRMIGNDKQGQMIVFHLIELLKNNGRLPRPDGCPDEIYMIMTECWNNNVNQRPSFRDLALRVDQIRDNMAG

SMILES: CN(C(=O)CN1CCOCC1)c1ccc2sc3c(-c4cccc5c(=O)cc(N6CC7CCC(C6)O7)oc45)cccc3c2c1 [NU5455]
- inhibition at 1 µM: -13.8%
